From ChEMBL document CHEMBL1127824, “6,6-Disubstituted Hex-5-enoic acid derivatives as combined thromboxane A2 receptor antagonists and synthetase inhibitors” (J Med Chem, 1994)
Values joined by “and” are separate entries in the source; they are usually repeats but may differ in a detail not shown here. Equal entries are not always repeated.

How the values were obtained:
Thromboxane-A synthase = biological target: T1, Thromboxane-A synthase (Homo sapiens, UniProt P24557)
T1 sequence (P24557 whole entry): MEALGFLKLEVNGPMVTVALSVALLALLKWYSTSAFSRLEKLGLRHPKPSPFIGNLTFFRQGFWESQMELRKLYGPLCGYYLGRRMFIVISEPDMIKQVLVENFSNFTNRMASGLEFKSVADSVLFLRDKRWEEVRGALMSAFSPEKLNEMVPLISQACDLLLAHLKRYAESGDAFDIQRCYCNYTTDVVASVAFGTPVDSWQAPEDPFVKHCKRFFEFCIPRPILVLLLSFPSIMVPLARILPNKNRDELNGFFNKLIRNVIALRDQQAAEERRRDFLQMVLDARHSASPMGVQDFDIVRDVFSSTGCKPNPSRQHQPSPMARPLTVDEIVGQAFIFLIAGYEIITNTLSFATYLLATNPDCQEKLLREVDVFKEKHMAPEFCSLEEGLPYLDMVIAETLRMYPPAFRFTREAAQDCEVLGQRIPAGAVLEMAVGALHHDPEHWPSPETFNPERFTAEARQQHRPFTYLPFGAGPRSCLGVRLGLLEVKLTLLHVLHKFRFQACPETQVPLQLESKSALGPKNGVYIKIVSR
Description: Inhibition test of thromboxane A2 synthetase in human gel-filtered platelets.

Homo sapiens = organism: Homo sapiens; assay: tissue or blood; format: functional, organism-based; conditions: Plasma
Description: Inhibition of collagen-induced platelet aggregation in human platelet-rich plasma.

Thromboxane A2 receptor = biological target: T2, Thromboxane A2 receptor (Homo sapiens, UniProt P21731)
T2 sequence (P21731 whole entry): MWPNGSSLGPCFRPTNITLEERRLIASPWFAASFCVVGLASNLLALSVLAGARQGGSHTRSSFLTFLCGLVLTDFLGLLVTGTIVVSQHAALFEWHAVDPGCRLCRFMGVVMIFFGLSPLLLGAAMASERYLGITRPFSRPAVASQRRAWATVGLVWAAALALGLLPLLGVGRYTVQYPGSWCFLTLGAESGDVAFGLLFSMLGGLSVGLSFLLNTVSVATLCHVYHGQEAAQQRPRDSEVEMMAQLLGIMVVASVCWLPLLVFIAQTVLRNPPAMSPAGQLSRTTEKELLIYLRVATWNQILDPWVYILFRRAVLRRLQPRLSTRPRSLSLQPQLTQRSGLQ

IC50 (Thromboxane-A synthase)	EC50 (Homo sapiens)	IC50 (Thromboxane A2 receptor)	Structure (SMILES)
2700 nM	> 100000 nM	1200 nM	Cc1ccc(S(=O)(=O)NCCc2ccc(/C(=C\C(=O)O)c3cccnc3)cc2)cc1
5 nM	3400 nM	81 nM	O=C(O)CCC/C=C(\c1ccc(CCNS(=O)(=O)c2ccccc2)cc1)c1cccnc1
5 nM	3800 nM	21 nM	O=C(O)CCC/C=C(/c1cccnc1)c1cccc(CNS(=O)(=O)c2ccc(Cl)cc2)c1
7 nM	5000 nM	55 nM	O=C(O)CCC/C=C(\c1ccc(CNS(=O)(=O)c2ccc(Cl)cc2)cc1)c1cccnc1
98 nM	12000 nM	74 nM	O=C(O)CCCC(c1ccc(CCNS(=O)(=O)c2ccc(Cl)cc2)cc1)c1cccnc1 (stereo not drawn)
43 nM	11000 nM	62 nM	O=C(O)CCC/C=C(\c1ccc(CCN(Cc2ccccc2)S(=O)(=O)c2ccc(Cl)cc2)cc1)c1cccnc1
5 nM	9200 nM	49 nM	NC(=O)CN(CCc1ccc(/C(=C\CCCC(=O)O)c2cccnc2)cc1)S(=O)(=O)c1ccc(Cl)cc1
100 nM	> 100000 nM	120 nM	O=C(O)CCC/C=C(\c1ccc(CCN(CCC(=O)O)S(=O)(=O)c2ccc(Cl)cc2)cc1)c1cccnc1
25 nM	> 100000 nM	51 nM	CC(C)N(CCc1ccc(/C(=C\CCCC(=O)O)c2cccnc2)cc1)S(=O)(=O)c1ccc(Cl)cc1
21 nM	36000 nM	42 nM	O=C(O)CC/C=C(\c1ccc(CCNS(=O)(=O)c2ccc(Cl)cc2)cc1)c1cccnc1
5 nM	700 nM	33 nM	Cc1ccc(S(=O)(=O)NCCc2ccc(/C(=C\CCCC(=O)O)c3cccnc3)cc2)cc1
250 nM	24000 nM	170 nM	CNC(=O)CCC/C=C(\c1ccc(CCNS(=O)(=O)c2ccc(Cl)cc2)cc1)c1cccnc1
15 nM	24000 nM	25 nM	CN(CCc1ccc(/C(=C\CCCC(=O)O)c2cccnc2)cc1)S(=O)(=O)c1ccc(Cl)cc1
2 nM	1200 nM	84 nM	O=C(O)CCCCC(c1ccc(CCNS(=O)(=O)c2ccc(Cl)cc2)cc1)c1cccnc1 (stereo not drawn)
45000 nM	> 100000 nM	1100 nM	O=C(O)CCC/C=C(\c1ccc(CCNS(=O)(=O)c2ccc(Cl)cc2)cc1)c1ccc[n+]([O-])c1
43 nM	55000 nM	210 nM	O=C(O)CCC/C=C(\c1ccc(CCNC(=O)c2ccc(Cl)cc2)cc1)c1cccnc1
5 nM	5300 nM	260 nM	O=C(O)CCC/C=C(\c1ccc(CCNS(=O)(=O)Cc2ccccc2)cc1)c1cccnc1
150 nM	60000 nM	200 nM	CC(C)(C)OC(=O)CCC/C=C(\c1ccc(CCNS(=O)(=O)c2ccc(Cl)cc2)cc1)c1cccnc1
4 nM	21000 nM	58 nM	O=C(O)CCC/C=C(\c1ccc(CCN(CCN2CCOCC2)S(=O)(=O)c2ccc(Cl)cc2)cc1)c1cccnc1
5 nM	10000 nM	52 nM	COc1ccc(S(=O)(=O)NCCc2ccc(/C(=C\CCCC(=O)O)c3cccnc3)cc2)cc1
8 nM	5000 nM	13 nM	O=C(O)CCC/C=C(/c1cccnc1)c1ccc2c(c1)CCC(NS(=O)(=O)c1ccc(Cl)cc1)C2 (stereo not drawn)
6 nM	2800 nM	28 nM	O=C(O)CCC/C=C(\c1ccc(CCNS(=O)(=O)c2ccc(C(F)(F)F)cc2)cc1)c1cccnc1
4 nM	1700 nM	12 nM	O=C(O)CCC/C=C(/c1cccnc1)c1cccc(CCNS(=O)(=O)c2ccc(Cl)cc2)c1
7 nM	40000 nM	60 nM	O=C(O)CCC/C=C(/c1cccnc1)c1cccc(NS(=O)(=O)c2ccc(Cl)cc2)c1
19 nM	30000 nM	42 nM	Cc1cc(C)c(S(=O)(=O)NCCc2ccc(/C(=C\CCCC(=O)O)c3cccnc3)cc2)c(C)c1

IC50 (Thromboxane-A synthase)	EC50 (Homo sapiens)	IC50 (Thromboxane A2 receptor)	Structure (SMILES)
4 nM	13000 nM	33 nM	CCN(CCc1ccc(/C(=C\CCCC(=O)O)c2cccnc2)cc1)S(=O)(=O)c1ccc(Cl)cc1
1 nM	560 nM	9 nM	O=C(O)CCC/C=C(/c1cccnc1)c1ccc2c(c1)CC(NS(=O)(=O)c1ccc(F)cc1)C2 (stereo not drawn)
21 nM	9500 nM	1200 nM	O=C(O)CCC/C=C(\c1ccc(CCNC(=O)Cc2ccccc2)cc1)c1cccnc1
4 nM	1100 nM	230 nM	Cn1c(CCNS(=O)(=O)c2ccc(F)cc2)ccc1/C(=C\CCCC(=O)O)c1cccnc1
15000 nM	> 100000 nM	3000 nM	Cc1ccc(S(=O)(=O)NCCc2ccc(/C(=C\C(=O)NCC(=O)O)c3cccnc3)cc2)cc1
1000 nM	37000 nM	12 nM	O=C(O)C/C=C(\c1ccc(CCNS(=O)(=O)c2ccc(Cl)cc2)cc1)c1cccnc1
24 nM	1500 nM	19 nM	O=C(O)CCCC/C=C(\c1ccc(CCNS(=O)(=O)c2ccc(Cl)cc2)cc1)c1cccnc1
5 nM	3400 nM	1100 nM	CCCCS(=O)(=O)NCCc1ccc(/C(=C\CCCC(=O)O)c2cccnc2)cc1
5 nM	> 100000 nM	270 nM	O=C(O)CCC/C=C(\c1ccc(NS(=O)(=O)c2ccc(Cl)cc2)cc1)c1cccnc1
310 nM	44000 nM	61 nM	O=C(O)CCC/C=C(\c1ccc(CCN(CC(=O)O)S(=O)(=O)c2ccc(Cl)cc2)cc1)c1cccnc1
33 nM	11000 nM	36 nM	COC(=O)CCC/C=C(\c1ccc(CCNS(=O)(=O)c2ccc(Cl)cc2)cc1)c1cccnc1
39 nM	28000 nM	94 nM	NC(=O)CCC/C=C(\c1ccc(CCNS(=O)(=O)c2ccc(Cl)cc2)cc1)c1cccnc1
31 nM	1200 nM	210 nM	O=C(O)CCCCCC(c1ccc(CCNS(=O)(=O)c2ccc(Cl)cc2)cc1)c1cccnc1 (stereo not drawn)
60 nM	4300 nM	26 nM	O=C(O)CCO/N=C(\c1ccc(CCNS(=O)(=O)c2ccc(Cl)cc2)cc1)c1cccnc1
21 nM	9500 nM	12 nM	O=S(=O)(NCCc1ccc(/C(=C\CCCc2nnn[nH]2)c2cccnc2)cc1)c1ccc(Cl)cc1
4 nM and 8 nM	16000 nM	1700 nM and 5200 nM	O=C(O)CCCCO/N=C(/c1cccnc1)c1cccc(C(F)(F)F)c1 [RIDOGREL]
5 nM	16000 nM	340 nM	COc1ccc(S(=O)(=O)NCCc2ccc(/C(=C\CCCC(=O)O)c3cccnc3)cc2)cc1OC
4 nM	30000 nM	100 nM	O=C(O)c1cccc(/C=C(\c2ccc(CCNS(=O)(=O)c3ccc(Cl)cc3)cc2)c2cccnc2)c1
46 nM	> 100000 nM	28 nM	O=C(O)CCC/C=C(\c1ccc(CCN(Cc2ccc(C(=O)O)cc2)S(=O)(=O)c2ccc(Cl)cc2)cc1)c1cccnc1
4 nM	3100 nM	66 nM	O=C(O)CCC/C=C(\c1ccc(CCNS(=O)(=O)c2ccc(F)cc2)cc1)c1cccnc1
24 nM	47000 nM	330 nM	O=C(O)CCC/C=C(\CCCNS(=O)(=O)c1ccc(Cl)cc1)c1cccnc1
27 nM	52000 nM	130 nM	O=C(O)c1ccc(/C=C(\c2ccc(CCNS(=O)(=O)c3ccc(Cl)cc3)cc2)c2cccnc2)cc1
6 nM and 4 nM	5800 nM	6 nM	O=C(O)CCC(CCCCNS(=O)(=O)c1ccc(Cl)cc1)CCCc1cccnc1 (stereo not drawn)
44 nM	40000 nM	300 nM	CN(C)C(=O)CCC/C=C(\c1ccc(CCNS(=O)(=O)c2ccc(Cl)cc2)cc1)c1cccnc1

Structure (SMILES)	IC50 (Thromboxane-A synthase)	EC50 (Homo sapiens)	IC50 (Thromboxane A2 receptor)
O=C(O)CCC/C=C(/c1ccc(CCNS(=O)(=O)c2ccc(Cl)cc2)cc1)c1cccnc1	490 nM	43000 nM	380 nM
O=C(O)CCC/C=C(\c1ccc(CCNS(=O)(=O)c2ccc(Cl)cc2)cc1)c1cccnc1 [SAMIXOGREL]	4 nM	1000 nM	19 nM
